In ChEMBL document CHEMBL1153552, “Comparative in vitro pharmacodynamics of caspofungin, micafungin, and anidulafungin against germinated and nongerminated Aspergillus conidia” (2008):
The source made the active and inactive calls. The rule behind the calls is not given here. Numbered stars: 1 amine (or outer) side, 2 acyl side, 3 side chain; on linkers, the order of the positions; unused ones are H or OH. Bridge positions count the residues as written; N and C are the ends. Square brackets hold non-standard residues; d marks the D form. Peptide text beside a SMILES is read from it. * marks the point of attachment. pTerphenylCO(4''-OnC5H11) = CCCCCOc1ccc(-c2ccc(-c3ccc(C(=O)*)cc3)cc2)cc1; Orn(4R-OH,5R-OH) = O=C([C@H](C[C@@H](O)[C@@H](O)N[*:3])N[*:1])[*:2]; hTyr(3S-OH,4S-OH) = N[C@H](C(=O)O)[C@H](O)[C@@H](O)c1ccc(O)cc1; Pro(3S-OH,4S-Me) = C[C@H]1CN[C@H](C(=O)O)[C@H]1O; Hyp = O=C(O)[C@@H]1C[C@@H](O)CN1

How the values were obtained:
[1] = system: Aspergillus fumigatus; assay: Antifungal activity against nongerminated Aspergillus fumigatus assessed as lowest drug concentration that produced short, stubby and highly branched hyphae after 48 hrs by microscopic analysis; type: functional; conditions: read-out: MEC
[2] = system: Aspergillus fumigatus; assay: Antifungal activity against germinated Aspergillus fumigatus assessed as lowest drug concentration that produced short, stubby and highly branched hyphae after 48 hrs by microscopic analysis; type: functional; conditions: read-out: MEC
[3] = system: Aspergillus fumigatus; assay: Ratio of log2 of MEC for germinated Aspergillus fumigatus to log2 of MEC for nongerminated Aspergillus fumigatus; type: functional
[4] = system: Aspergillus terreus; assay: Antifungal activity against nongerminated Aspergillus terreus assessed as lowest drug concentration that produced short, stubby and highly branched hyphae after 48 hrs by microscopic analysis; type: functional; conditions: read-out: MEC
[5] = system: Aspergillus terreus; assay: Antifungal activity against germinated Aspergillus terreus assessed as lowest drug concentration that produced short, stubby and highly branched hyphae after 48 hrs by microscopic analysis; type: functional; conditions: read-out: MEC
[6] = system: Aspergillus terreus; assay: Ratio of log2 of MEC for germinated Aspergillus terreus to log2 of MEC for nongerminated Aspergillus terreus; type: functional
[7] = system: Aspergillus flavus; assay: Antifungal activity against nongerminated Aspergillus flavus assessed as lowest drug concentration that produced short, stubby and highly branched hyphae after 48 hrs by microscopic analysis; type: functional; conditions: read-out: MEC
[8] = system: Aspergillus flavus; assay: Antifungal activity against germinated Aspergillus flavus assessed as lowest drug concentration that produced short, stubby and highly branched hyphae after 48 hrs by microscopic analysis; type: functional; conditions: read-out: MEC
[9] = system: Aspergillus flavus; assay: Ratio of log2 of MEC for germinated Aspergillus flavus to log2 of MEC for nongerminated Aspergillus flavus; type: functional
[10] = system: Aspergillus fumigatus; assay: Effect on nongerminated Aspergillus fumigatus metabolic activity assessed as drug concentration at which fungal metabolic activity occurs after 2 hrs by XTT assay; type: functional
[11] = system: Aspergillus fumigatus; assay: Effect on germinated Aspergillus fumigatus metabolic activity assessed as drug concentration at which fungal metabolic activity occurs after 2 hrs by XTT assay; type: functional
[12] = system: Aspergillus fumigatus; assay: Effect on Aspergillus fumigatus metabolic activity assessed number of twofold drug dilutions required for germinated fungal metabolic activity to nongerminated fungal metabolic activity; type: functional
[13] = system: Aspergillus terreus; assay: Effect on nongerminated Aspergillus terreus metabolic activity assessed as drug concentration at which fungal metabolic activity occurs after 2 hrs by XTT assay; type: functional
[14] = system: Aspergillus terreus; assay: Effect on germinated Aspergillus terreus metabolic activity assessed as drug concentration at which fungal metabolic activity occurs after 2 hrs by XTT assay; type: functional
[15] = system: Aspergillus terreus; assay: Effect on Aspergillus terreus metabolic activity assessed number of twofold drug dilutions required for germinated fungal metabolic activity to nongerminated fungal metabolic activity; type: functional
[16] = system: Aspergillus flavus; assay: Effect on nongerminated Aspergillus flavus metabolic activity assessed as drug concentration at which fungal metabolic activity occurs after 2 hrs by XTT assay; type: functional
[17] = system: Aspergillus flavus; assay: Effect on germinated Aspergillus flavus metabolic activity assessed as drug concentration at which fungal metabolic activity occurs after 2 hrs by XTT assay; type: functional
[18] = system: Aspergillus flavus; assay: Effect on Aspergillus flavus metabolic activity assessed number of twofold drug dilutions required for germinated fungal metabolic activity to nongerminated fungal metabolic activity; type: functional
[19] = system: Aspergillus fumigatus; assay: Induction of maximal metabolic inhibition in nongerminated Aspergillus fumigatus assessed as minimal metabolic activity Ymin after 2 hrs by XTT assay; type: functional; parameters: scale not given: the % may be the effect or the level left
[20] = system: Aspergillus fumigatus; assay: Induction of maximal metabolic inhibition in germinated Aspergillus fumigatus assessed as minimal metabolic activity Ymin after 2 hrs by XTT assay; type: functional; parameters: scale not given: the % may be the effect or the level left
[21] = system: Aspergillus terreus; assay: Induction of maximal metabolic inhibition in nongerminated Aspergillus terreus assessed as minimal metabolic activity Ymin after 2 hrs by XTT assay; type: functional; parameters: scale not given: the % may be the effect or the level left
[22] = system: Aspergillus terreus; assay: Induction of maximal metabolic inhibition in germinated Aspergillus terreus assessed as minimal metabolic activity Ymin after 2 hrs by XTT assay; type: functional; parameters: scale not given: the % may be the effect or the level left
[23] = system: Aspergillus flavus; assay: Induction of maximal metabolic inhibition in nongerminated Aspergillus flavus assessed as minimal metabolic activity Ymin after 2 hrs by XTT assay; type: functional; parameters: scale not given: the % may be the effect or the level left
[24] = system: Aspergillus flavus; assay: Induction of maximal metabolic inhibition in germinated Aspergillus flavus assessed as minimal metabolic activity Ymin after 2 hrs by XTT assay; type: functional; parameters: scale not given: the % may be the effect or the level left
[25] = system: Aspergillus fumigatus; assay: Increase in metabolic activity of nongerminated Aspergillus fumigatus assessed as formation of short, stubby aberrant hyphae at 0.03 ug/mL after 48 hrs by XTT assay; type: functional, organism-based
[26] = system: Aspergillus fumigatus; assay: Increase in metabolic activity of germinated Aspergillus fumigatus assessed as formation of short, stubby aberrant hyphae at 0.03 ug/mL after 48 hrs by XTT assay; type: functional, organism-based
[27] = system: Aspergillus terreus; assay: Increase in metabolic activity of nongerminated Aspergillus terreus assessed as formation of short, stubby aberrant hyphae at 0.03 ug/mL after 48 hrs by XTT assay; type: functional, organism-based
[28] = system: Aspergillus terreus; assay: Increase in metabolic activity of germinated Aspergillus terreus assessed as formation of short, stubby aberrant hyphae at 0.03 ug/mL after 48 hrs by XTT assay; type: functional, organism-based
[29] = system: Aspergillus flavus; assay: Increase in metabolic activity of nongerminated Aspergillus flavus assessed as formation of short, stubby aberrant hyphae at 0.03 ug/mL after 48 hrs by XTT assay; type: functional, organism-based
[30] = system: Aspergillus flavus; assay: Increase in metabolic activity of germinated Aspergillus flavus assessed as formation of short, stubby aberrant hyphae at 0.03 ug/mL after 48 hrs by XTT assay; type: functional, organism-based
[31] = system: Aspergillus fumigatus; assay: Increase in metabolic activity of nongerminated Aspergillus fumigatus assessed as elongation of short, stubby aberrant hyphae at 2 ug/mL after 48 hrs by XTT assay; type: functional, organism-based
[32] = system: Aspergillus fumigatus; assay: Increase in metabolic activity of germinated Aspergillus fumigatus assessed as elongation of short, stubby aberrant hyphae at 2 ug/mL after 48 hrs by XTT assay; type: functional, organism-based
[33] = system: Aspergillus terreus; assay: Increase in metabolic activity of nongerminated Aspergillus terreus assessed as elongation of short, stubby aberrant hyphae at 2 ug/mL after 48 hrs by XTT assay; type: functional, organism-based
[34] = system: Aspergillus terreus; assay: Increase in metabolic activity of germinated Aspergillus terreus assessed as elongation of short, stubby aberrant hyphae at 2 ug/mL after 48 hrs by XTT assay; type: functional, organism-based
[35] = system: Aspergillus flavus; assay: Increase in metabolic activity of nongerminated Aspergillus flavus assessed as elongation of short, stubby aberrant hyphae at 2 ug/mL after 48 hrs by XTT assay; type: functional, organism-based
[36] = system: Aspergillus flavus; assay: Increase in metabolic activity of germinated Aspergillus flavus assessed as elongation of short, stubby aberrant hyphae at 2 ug/mL after 48 hrs by XTT assay; type: functional, organism-based
[37] = system: Aspergillus fumigatus; assay: Increase in metabolic activity of nongerminated Aspergillus fumigatus elongation of short, stubby aberrant hyphae at 16 ug/mL after 48 hrs by XTT assay; type: functional, organism-based
[38] = system: Aspergillus fumigatus; assay: Increase in metabolic activity of germinated Aspergillus fumigatus assessed as elongation of short, stubby aberrant hyphae at 16 ug/mL after 48 hrs by XTT assay; type: functional, organism-based
[39] = system: Aspergillus terreus; assay: Increase in metabolic activity of nongerminated Aspergillus terreus assessed as elongation of short, stubby aberrant hyphae at 16 ug/mL after 48 hrs by XTT assay; type: functional, organism-based
[40] = system: Aspergillus terreus; assay: Increase in metabolic activity of germinated Aspergillus terreus assessed as elongation of short, stubby aberrant hyphae at 16 ug/mL after 48 hrs by XTT assay; type: functional, organism-based
[41] = system: Aspergillus flavus; assay: Increase in metabolic activity of nongerminated Aspergillus flavus assessed as elongation of short, stubby aberrant hyphae at 16 ug/mL after 48 hrs by XTT assay; type: functional, organism-based
[42] = system: Aspergillus flavus; assay: Increase in metabolic activity of germinated Aspergillus flavus assessed as elongation of short, stubby aberrant hyphae at 16 ug/mL after 48 hrs by XTT assay; type: functional, organism-based
[43] = system: Aspergillus fumigatus; assay: Antifungal activity against nongerminated Aspergillus fumigatus assessed as absence of visual fungal growth at 128 ug/mL; type: functional, organism-based
[44] = system: Aspergillus fumigatus; assay: Antifungal activity against germinated Aspergillus fumigatus assessed as absence of visual fungal growth at 128 ug/mL; type: functional, organism-based
[45] = system: Aspergillus terreus; assay: Antifungal activity against nongerminated Aspergillus terreus assessed as absence of visual fungal growth at 128 ug/mL; type: functional, organism-based
[46] = system: Aspergillus terreus; assay: Antifungal activity against germinated Aspergillus terreus assessed as absence of visual fungal growth at 128 ug/mL; type: functional, organism-based
[47] = system: Aspergillus flavus; assay: Antifungal activity against nongerminated Aspergillus flavus assessed as absence of visual fungal growth at 128 ug/mL; type: functional, organism-based
[48] = system: Aspergillus flavus; assay: Antifungal activity against germinated Aspergillus flavus assessed as absence of visual fungal growth at 128 ug/mL; type: functional, organism-based
[49] = system: Aspergillus fumigatus; assay: Antifungal activity against nongerminated Aspergillus fumigatus assessed as absence of visual fungal growth at 64 ug/mL; type: functional, organism-based
[50] = system: Aspergillus fumigatus; assay: Antifungal activity against germinated Aspergillus fumigatus assessed as absence of visual fungal growth at 64 ug/mL; type: functional, organism-based
[51] = system: Aspergillus terreus; assay: Antifungal activity against nongerminated Aspergillus terreus assessed as absence of visual fungal growth at 64 ug/mL; type: functional, organism-based
[52] = system: Aspergillus terreus; assay: Antifungal activity against germinated Aspergillus terreus assessed as absence of visual fungal growth at 64 ug/mL; type: functional, organism-based
[53] = system: Aspergillus flavus; assay: Antifungal activity against nongerminated Aspergillus flavus assessed as absence of visual fungal growth at 64 ug/mL; type: functional, organism-based
[54] = system: Aspergillus flavus; assay: Antifungal activity against germinated Aspergillus flavus assessed as absence of visual fungal growth at 64 ug/mL; type: functional, organism-based

Compound: CCCCCOc1ccc(-c2ccc(-c3ccc(C(=O)N[C@H]4C[C@@H](O)[C@@H](O)NC(=O)[C@@H]5[C@@H](O)[C@@H](C)CN5C(=O)[C@H]([C@@H](C)O)NC(=O)[C@H]([C@H](O)[C@@H](O)c5ccc(O)cc5)NC(=O)[C@@H]5C[C@@H](O)CN5C(=O)[C@H]([C@@H](C)O)NC4=O)cc3)cc2)cc1 [ANIDULAFUNGIN] ({pTerphenylCO(4''-OnC5H11)}-[Orn(4R-OH,5R-OH)]T[Hyp][hTyr(3S-OH,4S-OH)]T[Pro(3S-OH,4S-Me)]; lactam 1-C)
- minimal effective concentration [1]: 0.03 µg/mL
- minimal effective concentration [2]: 0.12 µg/mL
- Ratio [3]: 2
- minimal effective concentration [4]: 0.03 µg/mL
- minimal effective concentration [5]: 0.25 µg/mL
- Ratio [6]: 3
- minimal effective concentration [7]: 0.03 µg/mL
- minimal effective concentration [8]: 0.25 µg/mL
- Ratio [9]: 2.5
- EC5 [10]: 0.03 µg/mL
- EC5 [11]: 0.11 µg/mL
- Ratio [12]: 2.4
- EC5 [13]: 0.01 µg/mL
- EC5 [14]: 0.1 µg/mL
- Ratio [15]: 2.97
- EC5 [16]: 0.01 µg/mL
- EC5 [17]: 0.09 µg/mL
- Ratio [18]: 2.96
- Activity [19]: 26%
- Activity [20]: 36%
- Activity [21]: 30%
- Activity [22]: 44%
- Activity [23]: 16%
- Activity [24]: 16%
- Activity [25]: Active
- Activity [26]: Active
- Activity [27]: Active
- Activity [28]: Active
- Activity [29]: Active
- Activity [30]: Active
- Activity [31]: Active
- Activity [32]: Active
- Activity [33]: Active
- Activity [34]: Active
- Activity [35]: Active
- Activity [36]: Active
- Activity [37]: Active
- Activity [38]: Active
- Activity [39]: Active
- Activity [40]: Active
- Activity [41]: Active
- Activity [42]: Active
- Activity [43]: inactive
- Activity [44]: inactive
- Activity [45]: inactive
- Activity [46]: inactive
- Activity [47]: inactive
- Activity [48]: inactive
- Activity [49]: inactive
- Activity [50]: inactive
- Activity [51]: inactive
- Activity [52]: inactive
- Activity [53]: inactive
- Activity [54]: inactive
